What was measured:
[1] = Release of excipient from the simulated injection site, HPLC of bath aliquots; type: in vitro ADME; conditions: excipient of generic insulin formulation, 0.5 ml injected; buffer in the cassette
Description: Shortly after injection, the protein solubility level decreased as indicated by the drop in % T. As the environment within the cassette equilibrated with the surrounding physiological conditions and the pH shifted towards 7.4, the protein re-solubilised as indicated by the increase in the % T level. The release profile of an excipient, m-cresol, from the injection site was determined from aliquots taken from the surrounding buffer bath at different time points by HPLC following the method specified in “Biodegradation characterisation and kinetics of m-cresol by Lysinibacillus cresolivorans” in Water SA (Online) vol. 37 no. 1 Pretoria January 2011.

[2] = Diffusion through the DERMAROLLER-modified 14000 MWCO dialysis membrane; type: physicochemical; conditions: modified membrane with cut off of 14000 MWCO
Excerpt: As an example, the membrane used in the system was Biodesing dialysis tubing with a molecular weight cut off diameter of 14000 Da. A 3 cm piece of the tubing was cut and the edges were removed to form two sheets of membrane. These sheets of membrane, whilst not separated from each other, were fully hydrated by soaking in deionised water and subsequently placed on Styrofoam covered with aluminium foil. The membrane permeability was then modified using a DERMAROLLER microneedle device. The membrane used can be transparent. […] In contrast, for rhodamine (MW~500 Da) the diffusion through the same membrane took place in one phase. The holes can be made with a DERMAROLLER microneedle device, or with any other method producing size and spatial distribution of holes suitable for the application. The diameter of the holes should be between 0.1 and a 10 micrometers and the spacing between any two adjacent holes between 0.1 and 10 mm.
As an example (FIG. 4), for a series of fluorescent small organic molecules (methylene blue and rhodamine) and fluorescently labelled dextrans with molecular weights between 4 kDa and 2 MDa, the rate constant of diffusion (k, [min^−1]) through the membranes after the modification followed the equation k=−0.01362 log10 (MW of the compound)+0.06065. (R^2=0.9996)

Compound	time until all the excipient in the injected formulation has left the injection site [1]	mode of diffusion through the modified membrane [2]
Cc1cccc(O)c1 [m-cresol]	less than 50 minutes	
CN(C)c1ccc2nc3ccc(=[N+](C)C)cc-3sc2c1 [methylene blue]		two phase diffusion
rhodamine		one phase
